Reference: patent US9969710B2, “Heteroaryl compounds as IRAK inhibitors and uses thereof” (Merck Patent GmbH, priority 2015, dated 2018)

Experiments:
[1] = test system: TLR7 induced IL-6 secretion in human mononuclear cells (PBMC's); assay: TLR7 induced IL-6 in human PBMC's; format: cell-based; conditions: TLR7 specific ligand 2 uM overnight, IL-6 AlphaLISA
Protocol: TLR7 Induced IL-6 in Human PBMC's
Human PBMC assay was used as one of the functional assaya to monitor the activity of IRAK1 and IRAK4 small molecule inhibitors on TLR7 induced IL-6 secretion in human mononuclear cells (PBMC's). Human PBMCs were prepared from buffy coats (whole blood enriched with leukocytes and platelets) obtained from healthy volunteers used either fresh or frozen are plated in assay media (RPMI+2% P/S/L-glu+10% HI-FBS) and pre-treated with compounds in DMSO/media (range of concentrations from 25 uM to 0.4 nM) or controls (0.25% DMSO) for 30 minutes at 37° C. in assay media. Following pre-treatment with IRAK1 and IRAK4 inhibitors, PBMC's were stimulated with TLR7 specific ligand (2 uM) overnight (16-18 hrs) at 37° C. After incubation supernatant was transferred to 384 well PE AlphaPlate-384 (6005350) and IL-6 is quantified using Perkin Elmer IL-6 Alpha LISA kit (AL223C). Plates were read on an Envision® plate reader with Alpha Technology®.

IRAK4 = target: T1, IRAK4 (Homo sapiens, UniProt Q9NWZ3); assay: IRAK4 enzymatic assay (ADP-Glo luminescence); format: biochemical; conditions: human recombinant His-TEV-IRAK4 (1-460), STK1-biotin peptide substrate
T1 construct: His-TEV-IRAK4 (1-460); His (N); TEV cleavage site (N)
T1 sequence (Q9NWZ3 1-460): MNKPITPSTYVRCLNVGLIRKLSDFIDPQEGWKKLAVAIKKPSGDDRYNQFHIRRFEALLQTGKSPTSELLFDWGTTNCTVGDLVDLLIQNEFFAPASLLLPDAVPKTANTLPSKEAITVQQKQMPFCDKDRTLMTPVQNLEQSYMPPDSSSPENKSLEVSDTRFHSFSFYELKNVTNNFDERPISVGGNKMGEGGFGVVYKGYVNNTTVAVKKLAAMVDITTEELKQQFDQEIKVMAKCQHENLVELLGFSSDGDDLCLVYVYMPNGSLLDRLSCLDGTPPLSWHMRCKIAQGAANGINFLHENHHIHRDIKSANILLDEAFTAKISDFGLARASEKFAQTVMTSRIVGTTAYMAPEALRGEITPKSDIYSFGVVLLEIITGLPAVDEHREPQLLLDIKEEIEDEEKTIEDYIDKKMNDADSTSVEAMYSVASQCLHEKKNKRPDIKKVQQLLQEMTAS
Protocol: IRAK4 is a human purified recombinant enzyme (His-TEV-IRAK4 (1-460)).
In this assay, IRAK4 hydrolyses ATP, autophosphorylates and phosphorylates a Serine/Threonine generic peptidic substrate (STK: 61ST1BLC from CisBio International). Measurement of IRAK-4 inhibition is performed in 384-well format based on a luminescence assay (ADP-Glo™ Kinase Assay from Promega). Purified human recombinant IRAK4 ([…]) and serial diluted compounds in DMSO (range of concentration from 10 μM to 0.5 nM) or controls (1% DMSO) are incubated for 15 minutes at RT in assay buffer containing 50 mM Hepes pH 7.0, Fatty acid-free BSA 0.1%, Dithiothreitol (DTT) 2 mM, MgCl2 10 mM, EGTA 0.5 mM, Triton X-100 0.01%, MnCl2 5 mM. The kinase reaction is then initiated by the addition of ATP ([…]) and the peptidic substrate STK1-biotin peptide (300 nM). After 2 hours of incubation at RT, the reaction is stopped and the unconsumed ATP depleted by the addition of ADP-Glo™ Reagent according to supplier instructions. After 40 minutes of incubation at RT, the Kinase Detection Reagent is then added to the assay plate according to supplier instructions. After 20 minutes of incubation at RT, the luminescence signal is measured with a plate-reading luminometer (PerkinElmer Envision or equivalent reader).

IRAK1 = target: T2, IRAK1 (Homo sapiens, UniProt P51617); assay: IRAK1 enzymatic assay (ADP-Glo luminescence); format: biochemical; conditions: human recombinant His-TEV-IRAK1 (194-712), ATP 1 μM; read-out: IRAK 1 IC50
T2 construct: His-TEV-IRAK1 (194-712); His (N); TEV cleavage site (N)
Protocol: IRAK1 is a human purified recombinant enzyme (His-TEV-IRAK1 (194-712))
In this assay, IRAK1 hydrolyses ATP and autophosphorylates. Measurement of IRAK-1 inhibition is performed in 384-well format based on luminescence assay (ADP-Glo™ Kinase Assay from Promega). Purified human recombinant IRAK1 ([…]) and serial diluted compounds in DMSO (range of concentration from 10 μM to 0.5 nM) or controls (1% DMSO) are incubated for 15 minutes at RT in assay buffer containing 50 mM Hepes pH 7.0, Fatty acid-free BSA 0.1%, Dithiothreitol (DTT) 2 mM, MgCl2 10 mM, EGTA 0.5 mM, Triton X-100 0.01%. The kinase reaction is then initiated by the addition of ATP at a concentration of 1 μM. After 2 hours of incubation at RT, the reaction is stopped and the unconsumed ATP depleted by the addition of ADP-Glo™ Reagent according to supplier instructions. After 40 minutes of incubation at RT, the Kinase Detection Reagent is then added to the assay plate according to supplier instructions. After 20 minutes of incubation at RT, the luminescence signal is measured with a luminometer (PerkinElmer Envision or equivalent reader).

T2 sequence (P51617 194-712): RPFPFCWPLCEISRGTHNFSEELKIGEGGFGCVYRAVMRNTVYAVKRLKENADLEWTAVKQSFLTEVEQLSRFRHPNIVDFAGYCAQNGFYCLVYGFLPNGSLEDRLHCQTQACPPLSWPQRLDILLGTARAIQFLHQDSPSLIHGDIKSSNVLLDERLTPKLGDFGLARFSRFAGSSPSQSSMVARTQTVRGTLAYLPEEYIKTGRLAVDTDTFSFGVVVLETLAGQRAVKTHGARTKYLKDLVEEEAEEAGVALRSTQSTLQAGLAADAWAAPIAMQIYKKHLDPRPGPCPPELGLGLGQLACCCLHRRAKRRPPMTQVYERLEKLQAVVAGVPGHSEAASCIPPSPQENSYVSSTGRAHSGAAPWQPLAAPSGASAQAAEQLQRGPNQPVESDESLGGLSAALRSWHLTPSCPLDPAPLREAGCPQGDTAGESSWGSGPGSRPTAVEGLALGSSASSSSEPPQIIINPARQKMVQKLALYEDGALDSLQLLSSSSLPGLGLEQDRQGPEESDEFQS

Compound	IC50 (IRAK4) [nM]	IC50 (IRAK1) [nM]	IC50 ([1]; Homo sapiens, PBMC) [nM]	IC50 [1] [nM]
CN1CCCC(c2ccc3c(c2)[nH]/c(=N\C(=O)c2cccc(C(F)(F)F)c2)n3CCC(O)CO)C1=O (single isomer, unassigned) [Compound 22b]	≤ 100	≤ 100	–	≤ 100
CN1CCC(c2ccc3c(c2)[nH]/c(=N\C(=O)c2cccc(C(F)(F)F)c2)n3CC(O)CO)C1=O (single isomer, unassigned) [Compound 20b]	≤ 100	100 to 1000	–	1000 to 10000
C=CCCn1/c(=N/C(=O)c2cccc(C(F)(F)F)c2)[nH]c2cc(C3CCCN(C)C3=O)ccc21 (stereo not drawn) [Compound 18, N-[1-But-3-enyl-5-(1-methyl-2-oxo-piperidin-3-yl)-1,3-dihydro-benzoimidazol-(2E)-ylidene]-3-trifluoromethyl-benzamide]	≤ 100	100 to 1000	100 to 1000	–
CN1CCCC(c2ccc3c(c2)[nH]/c(=N\C(=O)c2cccc(C(F)(F)F)c2)n3CCC(O)CO)C1=O (single isomer, unassigned) [Compound 22d]	≤ 100	100 to 1000	–	100 to 1000
CN1CCCC(c2ccc3c(c2)[nH]/c(=N\C(=O)c2cccc(C(F)(F)F)c2)n3CCC(O)CO)C1=O (single isomer, unassigned) [Compound 22c]	≤ 100	100 to 1000	–	1000 to 10000
CN1CCCC(c2ccc3c(c2)[nH]/c(=N\C(=O)c2cccc(C(F)F)c2)n3C[C@@](C)(F)CO)C1=O (stereo partly drawn) [Compound 2b, (E)-3-(difluoromethyl)-N-(1-((R)-2-fluoro-3-hydroxy-2-methylpropyl)-5-(1-methyl-2-oxopiperidin-3-yl)-1H-benzo[d]imidazol-2(3H)-ylidene)benzamide]	≤ 100	100 to 1000	≤ 100	–
CN1CCC(c2ccc3c(c2)[nH]/c(=N\C(=O)c2cccc(C(F)(F)F)c2)n3CCC(O)CO)C1=O (single isomer, unassigned) [Compound 21a]	≤ 100	100 to 1000	100 to 1000	–
CN1C(=O)CC[C@@]1(C)c1ccc2c(c1)nc(NC(=O)c1cccc(C(F)F)c1)n2CCCO [Compound 31b, 3-(difluoromethyl)-N-{5-[(2S)-1,2-dimethyl-5-oxopyrrolidin-2-yl]-1-(3-hydroxypropyl)-1H-1,3-benzodiazol-2-yl}benzamide]	≤ 100	1000 to 10000	1000 to 10000	–
CN1CCC(C)(c2ccc3c(c2)nc(NC(=O)c2cccc(C(F)(F)F)c2)n3CCCO)C1=O (single isomer, unassigned) [Compound 29a]	≤ 100	1000 to 10000	–	1000 to 10000
CN1CCC(c2ccc3c(c2)[nH]/c(=N\C(=O)c2cccc(C(F)(F)F)c2)n3CCC(O)CO)C1=O (single isomer, unassigned) [Compound 21b]	≤ 100	100 to 1000	–	100 to 1000
CN1CC(c2ccc3c(c2)nc(NC(=O)c2cccc(C(F)F)c2)n3CCCO)C(C)(C)C1=O (single isomer, unassigned) [Compound 27b]	≤ 100	100 to 1000	–	100 to 1000
CN1CC(c2ccc3c(c2)nc(NC(=O)c2cccc(C(F)(F)F)c2)n3CCCO)C(C)(C)C1=O (single isomer, unassigned) [Compound 25a]	≤ 100	≤ 100	100 to 1000	–
CN1C(=O)CCC1(C)c1ccc2c(c1)nc(NC(=O)c1cccc(C(F)(F)F)c1)n2CCCO (single isomer, unassigned) [Compound 32b]	≤ 100	100 to 1000	–	1000 to 10000
C=CCn1/c(=N/C(=O)c2cccc(C(F)(F)F)c2)[nH]c2cc(C3CCN(C)C3=O)ccc21 (stereo not drawn) [Compound 19, N-[1-Allyl-5-(1-methyl-2-oxo-pyrrolidin-3-yl)-1,3-dihydro-benzoimidazol-(2E)-ylidene]-3-trifluoromethyl-benzamide]	≤ 100	100 to 1000	100 to 1000	–
CN1C(=O)CCC1(C)c1ccc2c(c1)nc(NC(=O)c1cccc(C(F)(F)F)c1)n2CCCO (single isomer, unassigned) [Compound 32a]	≤ 100	100 to 1000	1000 to 10000	–

Further lines, with some results ahead:

IC50 (IRAK4) [nM]	IC50 (IRAK1) [nM]	Compound	IC50 ([1]; Homo sapiens, PBMC) [nM]	IC50 [1] [nM]
≤ 100	100 to 1000	CN1CCC(c2ccc3c(c2)nc(NC(=O)c2cccc(C(F)(F)F)c2)n3CCCO)C1=O (stereo not drawn) [Compound 23, N-[1-(3-hydroxypropyl)-5-(1-methyl-2-oxopyrrolidin-3-yl)-1H-1,3-benzodiazol-2-yl]-3-(trifluoromethyl)benzamide]	≤ 100	–
≤ 100	1000 to 10000	CN1CCC[C@H](c2ccc3c(c2)[nH]/c(=N\C(=O)c2cccc(C(F)F)c2)n3C[C@@](C)(F)CO)C1=O [Compound 3a, 3-(difluoromethyl)-N-[(2E)-1-[(2R)-2-fluoro-3-hydroxy-2-methylpropyl]-5-[(3R)-1-methyl-2-oxopiperidin-3-yl]-2,3-dihydro-1H-1,3-benzodiazol-2-ylidene]benzamide]	100 to 1000	–
≤ 100	≤ 100	CC(=O)N1CCC(c2ccc3c(c2)[nH]/c(=N\C(=O)c2cccc(C(F)(F)F)c2)n3CCCO)CC1 [Compound 13, (E)-N-(5-(1-acetylpiperidin-4-yl)-1-(3-hydroxypropyl)-1H-benzo[d]imidazol-2(3H)-ylidene)-3-(trifluoromethyl)benzamide]	100 to 1000	–
≤ 100	≤ 100	CC(=O)N1CCCC(c2ccc3c(c2)[nH]/c(=N\C(=O)c2cccc(C(F)(F)F)c2)n3CCCO)C1 (stereo not drawn) [Compound 14, (E)-N-(5-(1-acetylpiperidin-3-yl)-1-(3-hydroxypropyl)-1H-benzo[d]imidazol-2(3H)-ylidene)-3-(trifluoromethyl)benzamide]	≤ 100	–
≤ 100	100 to 1000	CN1CCC(c2ccc3c(c2)nc(NC(=O)c2cccc(C(F)(F)F)c2)n3CCCO)C1=O (single isomer, unassigned) [Compound 23a]	≤ 100	–
≤ 100	100 to 1000	CN1CC[C@H](c2ccc3c(c2)nc(NC(=O)c2cccc(C(F)(F)F)c2)n3CCCO)C1=O [Compound 23b, N-[1-(3-hydroxypropyl)-5-[(3R)-1-methyl-2-oxopyrrolidin-3-yl]-1H-1,3-benzodiazol-2-yl]-3-(trifluoromethyl) benzamide]	100 to 1000	–
≤ 100	1000 to 10000	CN1CCC[C@@H](c2ccc3c(c2)[nH]/c(=N\C(=O)c2cccc(C(F)F)c2)n3C[C@](C)(F)CO)C1=O (single isomer, unassigned) [Compound 3b]	100 to 1000	–
